From the supplement of paper PMC10307832

Legend:
Experiment in all cases: relative viability (nuclei count vs DMSO), 5 days (fraction); higher = more cells survive
[1] = compound: CC1=C(N=C(N=C1N)[C@H](CC(=O)N)NC[C@@H](C(=O)N)N)C(=O)N[C@@H]([C@H](C2=CN=CN2)OC3C(C(C(C(O3)CO)O)O)OC4C(C(C(C(O4)CO)O)OC(=O)N)O)C(=O)N[C@H](C)[C@H]([C@H](C)C(=O)N[C@@H]([C@@H](C)O)C(=O)NCCC5=NC(=CS5)C6=NC(=CS6)C(=O)NCCC[S+](C)C)O [Bleomycin] + CC1(C)CCC(c2ccc(Cl)cc2)=C(CN2CCN(c3ccc(C(=O)NS(=O)(=O)c4ccc(N[C@H](CCN5CCOCC5)CSc5ccccc5)c(S(=O)(=O)C(F)(F)F)c4)cc3)CC2)C1 [Navitoclax] (partner 0.5 µM); conditions: main component drawn
Procedure, shortened: (§1)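 Cells from lung cancer lines were seeded into 1536-well plates and, one day later, dosed by pin tool. Treatments were either a single drug or a fixed dose of an anchor drug with five library-drug doses (not always all listed) in √10 steps. After 5 days, nuclei were stained in a one-step fixation (final 0.05% Triton X-100, 1% formaldehyde, 1 ug/ml Hoechst) and counted on 4× images, and relative viability is the treated-to-vehicle nuclei ratio, as the median of duplicate plates.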

[2] = compound: COc1cc([C@@H]2c3cc4c(cc3[C@@H](O[C@@H]3O[C@@H]5CO[C@@H](C)O[C@H]5[C@H](O)[C@H]3O)[C@H]3COC(=O)[C@H]23)OCO4)cc(OC)c1O [Etoposide]
Procedure, shortened: (§2)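 Viability was read as treated-well nuclei divided by vehicle-well nuclei, using the median across plates. Lung cancer cell lines in 1536-well plates were kept overnight at 37 °C, pinned with five √10-spaced library-drug doses, and after 5 days were Hoechst-stained, imaged at 4× and counted in MetaXpress. Plates passed only with control CV below 25% and at least one doubling.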

[3] = compound: CC1=C(N=C(N=C1N)[C@H](CC(=O)N)NC[C@@H](C(=O)N)N)C(=O)N[C@@H]([C@H](C2=CN=CN2)OC3C(C(C(C(O3)CO)O)O)OC4C(C(C(C(O4)CO)O)OC(=O)N)O)C(=O)N[C@H](C)[C@H]([C@H](C)C(=O)N[C@@H]([C@@H](C)O)C(=O)NCCC5=NC(=CS5)C6=NC(=CS6)C(=O)NCCC[S+](C)C)O [Bleomycin]; conditions: main component drawn
Procedure, shortened: as §2

[4] = compound: COc1cc([C@@H]2c3cc4c(cc3[C@@H](O[C@@H]3O[C@@H]5CO[C@@H](C)O[C@H]5[C@H](O)[C@H]3O)[C@H]3COC(=O)[C@H]23)OCO4)cc(OC)c1O [Etoposide] + N=C(N)NC(=N)NCCc1ccccc1 [Phenformin] (partner 250 µM)
Procedure, shortened: as §1

Row | Cell Line | relative viability ([1]; first compound 0.01 µM) | relative viability ([1]; first compound 0.03162 µM) | relative viability ([1]; first compound 0.1 µM) | relative viability ([1]; first compound 0.3162 µM) | relative viability ([1]; first compound 1 µM) | relative viability ([2]; 0.01 µM) | relative viability ([2]; 0.03162 µM) | relative viability ([2]; 0.1 µM) | relative viability ([2]; 0.3162 µM) | relative viability ([2]; 1 µM) | relative viability ([3]; 0.01 µM) | relative viability ([3]; 0.03162 µM) | relative viability ([3]; 0.1 µM) | relative viability ([3]; 0.3162 µM) | relative viability ([3]; 1 µM) | relative viability ([4]; first compound 0.01 µM) | relative viability ([4]; first compound 0.03162 µM) | relative viability ([4]; first compound 0.1 µM) | relative viability ([4]; first compound 0.3162 µM) | relative viability ([4]; first compound 1 µM)
1 | Calu-6 | 0.459 | 0.336 | 0.207 | 0.114 | 0.0817 | 0.938 | 0.985 | 1.05 | 0.684 | 0.365 | 0.77 | 0.784 | 0.495 | 0.205 | 0.174 | – | – | – | – | –
2 | LC-2-ad | 0.333 | 0.364 | 0.24 | 0.123 | 0.13 | 0.974 | 1.07 | 0.837 | 0.718 | 0.261 | 0.756 | 0.726 | 0.549 | 0.262 | 0.192 | 0.602 | 0.559 | 0.456 | 0.344 | 0.268
3 | CAL-12T | 0.964 | 0.785 | 0.551 | 0.228 | 0.201 | 0.946 | 1.04 | 0.797 | 0.726 | 0.333 | 0.755 | 0.824 | 0.545 | 0.273 | 0.202 | 0.594 | 0.612 | 0.586 | 0.409 | 0.221
4 | SK-LU-1 | 0.807 | 1.06 | 0.662 | 0.205 | 0.264 | 0.99 | 1.03 | 0.67 | 0.413 | 0.264 | 0.897 | 1.01 | 0.909 | 0.588 | 0.411 | 0.476 | 0.605 | 0.322 | 0.224 | 0.183
5 | ABC-1 | – | – | – | – | – | 1.08 | 0.954 | 0.697 | 0.41 | 0.273 | 0.741 | 0.942 | 0.891 | 0.383 | 0.29 | 0.239 | 0.244 | 0.241 | 0.201 | 0.171
6 | NCI-H1299 | 0.977 | 1.01 | 0.922 | 0.396 | 0.376 | 1.01 | 0.995 | 1.07 | 0.932 | 0.779 | 0.937 | 1.03 | 0.936 | 0.601 | 0.287 | – | – | – | – | –
7 | EBC-1 | 0.392 | 0.527 | 0.379 | 0.274 | 0.269 | 0.977 | 1.06 | 0.714 | 0.872 | 0.562 | 0.893 | 0.951 | 0.905 | 0.836 | 0.602 | – | – | – | – | –
8 | NCI-H2342 | – | – | – | – | – | 1.04 | 1.03 | 0.533 | 0.38 | 0.34 | 1.02 | 0.999 | 0.968 | 0.759 | 0.653 | 0.646 | 0.643 | 0.425 | 0.351 | 0.284
9 | NCI-H661 | – | – | – | – | – | 1.03 | 1.03 | 0.873 | 0.827 | 0.565 | 0.907 | 0.875 | 0.767 | 0.475 | 0.394 | 0.283 | 0.289 | 0.267 | 0.249 | 0.208
10 | NCI-H650 | – | – | – | – | – | 0.949 | 0.98 | 0.68 | 0.561 | 0.256 | 0.743 | 1.11 | 0.768 | 0.492 | 0.242 | 0.445 | 0.508 | 0.394 | 0.363 | 0.226
11 | NCI-H358 | – | – | – | – | – | 0.985 | 0.982 | 0.564 | 0.302 | 0.17 | 0.879 | 0.944 | 0.829 | 0.445 | 0.428 | 0.341 | 0.402 | 0.219 | 0.114 | 0.0696
12 | NCI-H1563 | – | – | – | – | – | 0.816 | 0.974 | 0.791 | 0.641 | 0.55 | 0.843 | 0.836 | 0.783 | 0.625 | 0.652 | 0.628 | 0.7 | 0.609 | 0.55 | 0.476
13 | SW 900 | – | – | – | – | – | 0.778 | 0.809 | 0.729 | 0.524 | 0.224 | 0.697 | 0.816 | 0.6 | 0.21 | 0.205 | 0.359 | 0.618 | 0.459 | 0.322 | 0.16
14 | IA-LM | 0.498 | 0.673 | 0.611 | 0.28 | 0.205 | 0.88 | 0.946 | 0.742 | 0.875 | 0.655 | 0.873 | 0.852 | 0.839 | 0.347 | 0.356 | – | – | – | – | –
15 | NCI-H1703 | 1.05 | 1.11 | 0.531 | 0.278 | 0.203 | 0.761 | 1.03 | 0.75 | 0.711 | 0.371 | 0.928 | 0.895 | 0.826 | 0.381 | 0.272 | – | – | – | – | –
16 | LCLC-103H | – | – | – | – | – | 0.976 | 1.15 | 0.879 | 0.942 | 0.864 | 0.916 | 0.94 | 0.982 | 0.569 | 0.382 | 0.316 | 0.348 | 0.329 | 0.346 | 0.305
17 | NCI-H1648 | – | – | – | – | – | – | 1.01 | 0.783 | 0.674 | 0.516 | 0.71 | 0.696 | 0.773 | 0.608 | 0.68 | – | – | – | – | –
